Results from ChEMBL document CHEMBL1136903, “Spiroimidazolidinone NPC1L1 inhibitors. 1: Discovery by 3D-similarity-based virtual screening” (Bioorg Med Chem Lett, 2009).

Experiments:
[1] = Displacement of [35S](2S,3S,4S,5R,6S)-6-(4-((2S,3R)-3-((S)-3-(4-fluorophenyl)-3-hydroxypropyl)-1-(4-(3-(methylsulfonamido)prop-1-ynyl)phenyl)-4-oxoazetidin-2-yl)phenoxy)-3,4,5-trihydroxytetrahydro-2H-pyran-2-carboxylic acid from NPC1L1 in pig enterocyte brush border membrane; parameters: species or system Sus scrofa
[2] = Displacement of [35S](2S,3S,4S,5R,6S)-6-(4-((2S,3R)-3-((S)-3-(4-fluorophenyl)-3-hydroxypropyl)-1-(4-(3-(methylsulfonamido)prop-1-ynyl)phenyl)-4-oxoazetidin-2-yl)phenoxy)-3,4,5-trihydroxytetrahydro-2H-pyran-2-carboxylic acid from NPC1L1 in guinea pig enterocyte brush border membrane; parameters: species or system Cavia porcellus
[3] = biological target: NPC1-like intracellular cholesterol transporter 1 (Rattus norvegicus, UniProt Q6T3U3); assay: Displacement of [35S](2S,3S,4S,5R,6S)-6-(4-((2S,3R)-3-((S)-3-(4-fluorophenyl)-3-hydroxypropyl)-1-(4-(3-(methylsulfonamido)prop-1-ynyl)phenyl)-4-oxoazetidin-2-yl)phenoxy)-3,4,5-trihydroxytetrahydro-2H-pyran-2-carboxylic acid from NPC1L1 in rat enterocyte brush border membrane
[4] = biological target: T1, Niemann-Pick C1-like 1 protein (Canis lupus familiaris, UniProt A0MJA4); assay: Displacement of [35S](2S,3S,4S,5R,6S)-6-(4-((2S,3R)-3-((S)-3-(4-fluorophenyl)-3-hydroxypropyl)-1-(4-(3-(methylsulfonamido)prop-1-ynyl)phenyl)-4-oxoazetidin-2-yl)phenoxy)-3,4,5-trihydroxytetrahydro-2H-pyran-2-carboxylic acid from NPC1L1 in dog enterocyte brush border membrane
T1 sequence (A0MJA4 whole entry): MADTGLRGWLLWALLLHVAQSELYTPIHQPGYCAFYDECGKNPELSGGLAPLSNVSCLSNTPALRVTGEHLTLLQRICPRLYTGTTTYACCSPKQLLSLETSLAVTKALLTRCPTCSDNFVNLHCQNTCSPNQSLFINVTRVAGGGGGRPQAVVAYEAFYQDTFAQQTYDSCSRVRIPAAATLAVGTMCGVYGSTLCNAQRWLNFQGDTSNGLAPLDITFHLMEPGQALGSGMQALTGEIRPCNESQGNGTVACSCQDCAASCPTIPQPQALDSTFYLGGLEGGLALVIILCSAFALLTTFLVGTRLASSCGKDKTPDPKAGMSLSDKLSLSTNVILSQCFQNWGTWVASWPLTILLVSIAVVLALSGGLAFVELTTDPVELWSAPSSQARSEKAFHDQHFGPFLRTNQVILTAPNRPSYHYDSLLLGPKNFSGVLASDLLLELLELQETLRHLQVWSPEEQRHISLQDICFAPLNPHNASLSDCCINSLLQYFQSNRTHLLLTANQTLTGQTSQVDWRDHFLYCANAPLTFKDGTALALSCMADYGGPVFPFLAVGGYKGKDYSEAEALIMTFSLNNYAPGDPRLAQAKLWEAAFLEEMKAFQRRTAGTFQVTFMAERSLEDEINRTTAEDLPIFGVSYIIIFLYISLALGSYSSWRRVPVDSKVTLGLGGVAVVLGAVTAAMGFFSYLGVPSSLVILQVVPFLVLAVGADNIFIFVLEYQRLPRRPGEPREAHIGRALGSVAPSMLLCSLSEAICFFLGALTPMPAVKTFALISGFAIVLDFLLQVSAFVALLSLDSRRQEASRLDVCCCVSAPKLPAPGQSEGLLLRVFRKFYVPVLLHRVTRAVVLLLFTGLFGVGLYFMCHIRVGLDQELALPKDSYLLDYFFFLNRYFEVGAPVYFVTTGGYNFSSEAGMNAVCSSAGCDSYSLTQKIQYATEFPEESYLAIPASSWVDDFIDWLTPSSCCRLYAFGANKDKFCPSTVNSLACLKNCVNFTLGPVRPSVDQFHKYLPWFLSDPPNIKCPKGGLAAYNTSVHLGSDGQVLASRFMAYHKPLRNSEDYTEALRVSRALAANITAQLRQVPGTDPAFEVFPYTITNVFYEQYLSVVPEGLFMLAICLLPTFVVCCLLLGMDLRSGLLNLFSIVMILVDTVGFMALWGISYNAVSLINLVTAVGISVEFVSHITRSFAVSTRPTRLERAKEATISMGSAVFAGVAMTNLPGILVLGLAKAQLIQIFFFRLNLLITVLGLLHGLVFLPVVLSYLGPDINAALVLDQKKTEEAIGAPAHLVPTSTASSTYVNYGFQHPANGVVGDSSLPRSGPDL

Chain of NPC1-like intracellular cholesterol transporter 1 (Q6T3U3 21-1331 limits assumed): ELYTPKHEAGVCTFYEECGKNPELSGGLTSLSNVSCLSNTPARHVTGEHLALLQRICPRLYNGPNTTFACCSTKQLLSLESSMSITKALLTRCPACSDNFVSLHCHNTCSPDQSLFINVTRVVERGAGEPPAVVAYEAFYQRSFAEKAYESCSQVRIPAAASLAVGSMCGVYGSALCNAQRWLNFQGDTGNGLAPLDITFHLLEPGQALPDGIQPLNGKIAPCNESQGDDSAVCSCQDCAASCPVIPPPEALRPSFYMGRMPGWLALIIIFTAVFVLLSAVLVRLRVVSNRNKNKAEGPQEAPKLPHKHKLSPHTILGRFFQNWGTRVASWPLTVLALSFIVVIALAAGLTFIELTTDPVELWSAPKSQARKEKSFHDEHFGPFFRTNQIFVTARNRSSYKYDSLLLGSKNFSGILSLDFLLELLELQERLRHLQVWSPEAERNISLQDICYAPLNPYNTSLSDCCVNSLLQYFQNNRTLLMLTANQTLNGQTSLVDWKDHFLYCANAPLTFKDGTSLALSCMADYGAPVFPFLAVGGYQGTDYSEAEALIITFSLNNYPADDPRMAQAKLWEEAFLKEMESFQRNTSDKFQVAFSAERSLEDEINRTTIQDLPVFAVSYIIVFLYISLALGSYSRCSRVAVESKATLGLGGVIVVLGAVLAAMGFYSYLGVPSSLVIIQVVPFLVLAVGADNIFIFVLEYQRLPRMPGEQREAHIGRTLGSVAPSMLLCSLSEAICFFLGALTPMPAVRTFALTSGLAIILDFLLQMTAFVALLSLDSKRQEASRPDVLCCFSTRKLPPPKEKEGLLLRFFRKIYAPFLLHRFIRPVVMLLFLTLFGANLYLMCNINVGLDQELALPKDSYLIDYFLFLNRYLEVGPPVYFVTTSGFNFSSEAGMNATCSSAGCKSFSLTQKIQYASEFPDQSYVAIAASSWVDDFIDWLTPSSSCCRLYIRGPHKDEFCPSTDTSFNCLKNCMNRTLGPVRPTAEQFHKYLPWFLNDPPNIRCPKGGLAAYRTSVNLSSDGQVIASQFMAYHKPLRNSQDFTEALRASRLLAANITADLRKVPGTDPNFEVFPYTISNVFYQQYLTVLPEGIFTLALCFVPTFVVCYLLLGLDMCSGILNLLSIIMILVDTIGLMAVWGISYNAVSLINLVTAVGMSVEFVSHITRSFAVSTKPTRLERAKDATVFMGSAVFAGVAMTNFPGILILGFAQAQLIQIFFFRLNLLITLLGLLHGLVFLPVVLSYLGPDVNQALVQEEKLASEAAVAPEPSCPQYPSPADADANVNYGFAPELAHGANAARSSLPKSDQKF

CC(C)(C)c1ccc(C(=O)N2CCC3(CC2)C(=O)N(CC(=O)N2CCCCC2)CN3c2ccccc2)cc1
IC50 [1]: > 500 µM | IC50 [2]: 470 µM | IC50 [3]: 110 µM | IC50 [4]: 170 µM

CS(=O)(=O)NCC#CN1C(=O)[C@H](CC[C@H](O)c2ccc(F)cc2)[C@H]1c1ccc(O[C@@H]2O[C@H](C(=O)O)[C@@H](O)[C@H](O)[C@H]2O)cc1
IC50 [1]: 0.013 µM | IC50 [2]: 0.071 µM | IC50 [3]: 0.016 µM | IC50 [4]: 0.008 µM

O=C([C@@H]1C[C@@H](c2ccccc2)CN1C(=O)c1ccccc1)N1CCC2(C=Cc3ccccc32)CC1
IC50 [1]: > 500 µM | IC50 [2]: 118 µM | IC50 [3]: 34 µM | IC50 [4]: > 500 µM

O=C(O)[C@H]1O[C@@H](Oc2ccc([C@@H]3[C@@H](CC[C@H](O)c4ccc(F)cc4)C(=O)N3c3ccc(F)cc3)cc2)[C@H](O)[C@@H](O)[C@@H]1O
IC50 [1]: 0.32 µM | IC50 [2]: 3.3 µM | IC50 [3]: 0.58 µM | IC50 [4]: 0.06 µM
